Data: PubChem BioAssay (NCI)
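Grown in 96-well plates, cells were treated for 48 hours with each compound at five concentrations. Insufficient inhibition: endpoint recorded as highest concentration tested. Here, GI50 denotes the concentration required for 50% inhibition of growth. TGI marks complete inhibition of growth.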

What was measured:
Assay in all cases: inhibition of tumour cell growth, NCI panel, 48 h; in the data active = GI50 below about 0.43 µM; inactive = the rest
[1] = test system: HCC-2998 colon
[2] = test system: SW-620 colon
[3] = test system: NCI-H23 lung
[4] = test system: HCT-116 colon
[5] = test system: HL-60(TB) leukemia
[6] = test system: RXF 393 renal
[7] = test system: A498 renal
[8] = test system: MCF7 breast
[9] = test system: K-562 leukemia
[10] = test system: HOP-62 NSCLC
[11] = test system: SK-MEL-5 melanoma
[12] = test system: EKVX NSCLC
[13] = test system: NCI-H226 lung
[14] = test system: COLO 205 colon
[15] = test system: U251 CNS
[16] = test system: HT29 colon
[17] = test system: NCI-H460 lung
[18] = test system: NCI/ADR-RES ovarian
[19] = test system: CCRF-CEM leukemia
[20] = test system: TK-10 renal
[21] = test system: CAKI-1 renal
[22] = test system: UO-31 renal
[23] = test system: OVCAR-8 ovarian
[24] = test system: SK-OV-3 ovarian
[25] = test system: SNB-75 CNS
[26] = test system: SF-295 CNS
[27] = test system: T-47D breast
[28] = test system: SR leukemia
[29] = test system: PC-3 prostate
[30] = test system: A549 NSCLC
[31] = test system: SNB-19 CNS
[32] = test system: ACHN renal
[33] = test system: IGROV1 ovarian
[34] = test system: MDA-MB-231 breast
[35] = test system: SK-MEL-2 melanoma
[36] = test system: SN12C renal
[37] = test system: OVCAR-4 ovarian
[38] = test system: HCT-15 colon
[39] = test system: MALME-3M melanoma
[40] = test system: NCI-H522 lung
[41] = test system: UACC-62 melanoma
[42] = test system: HOP-92 NSCLC
[43] = test system: MOLT-4 leukemia
[44] = test system: RPMI-8226 leukemia
[45] = test system: DU-145 prostate
[46] = test system: 786-0 renal
[47] = test system: KM12 colon
[48] = test system: SF-268 CNS
[49] = test system: HS 578T breast
[50] = test system: OVCAR-5 ovarian
[51] = test system: SK-MEL-28 melanoma
[52] = test system: SF-539 CNS
[53] = test system: BT-549 breast
[54] = test system: OVCAR-3 ovarian
[55] = test system: UACC-257 melanoma
[56] = test system: LOX IMVI melanoma

NC(=O)c1cccc(-c2cc(C(N)=O)ccc2Cl)c1
15.3 µM: TGI [7]
40.9 µM: TGI [29]
95.7 µM: TGI [43]
5.5 µM: TGI [25]
5.26 µM: TGI [6]
> 100 µM: TGI [1] | TGI [2] | TGI [3] | TGI [4] | TGI [8] | TGI [9] | TGI [10] | TGI [12] | TGI [13] | TGI [14] | TGI [15] | TGI [16] | TGI [19] | TGI [20] | TGI [21] | TGI [22] | TGI [23] | TGI [24] | TGI [27] | TGI [30] | TGI [31] | TGI [32] | TGI [33] | TGI [34] | TGI [35] | TGI [37] | TGI [38] | TGI [39] | TGI [45] | TGI [46] | TGI [47] | TGI [48] | TGI [49] | TGI [50] | TGI [51] | TGI [53] | TGI [55] | TGI [56]
25.9 µM: TGI [18]
4.85 µM: TGI [52]
37.5 µM: TGI [54]
3.11 µM: TGI [44]
88.3 µM: TGI [36]
14.8 µM: TGI [11]
5.91 µM: TGI [5]
54 µM: TGI [17]
inactive: GI50 [1] 7.43 µM | GI50 [2] 2.14 µM | GI50 [3] 9.21 µM | GI50 [4] 2.35 µM | GI50 [5] 2.42 µM | GI50 [6] 2.11 µM | GI50 [7] 3.03 µM | GI50 [8] 1.01 µM | GI50 [10] 3.51 µM | GI50 [11] 3.62 µM | GI50 [12] 4.37 µM | GI50 [13] 13.4 µM | GI50 [14] 3.21 µM | GI50 [15] 2.88 µM | GI50 [16] 1.19 µM | GI50 [17] 12.2 µM | GI50 [18] 1.51 µM | GI50 [19] 2.19 µM | GI50 [20] 9.12 µM | GI50 [21] 2.66 µM | GI50 [22] 4.61 µM | GI50 [23] 4.32 µM | GI50 [24] 5.63 µM | GI50 [25] 1.1 µM | GI50 [26] 2.41 µM | GI50 [27] 4.56 µM | GI50 [29] 3.03 µM | GI50 [30] 12.4 µM | GI50 [31] 2.89 µM | GI50 [32] 6.46 µM | GI50 [33] 4.21 µM | GI50 [34] 4.52 µM | GI50 [35] 5.21 µM | GI50 [36] 4.85 µM | GI50 [37] 9.21 µM | GI50 [38] 0.846 µM | GI50 [39] 3.98 µM | GI50 [40] 2.39 µM | GI50 [41] 1.77 µM | GI50 [43] 2.22 µM | GI50 [45] 3.78 µM | GI50 [46] 5.37 µM | GI50 [47] 1.88 µM | GI50 [48] 5.68 µM | GI50 [49] 2.59 µM | GI50 [50] 4.11 µM | GI50 [51] 7.17 µM | GI50 [52] 1.65 µM | GI50 [53] 6.82 µM | GI50 [54] 2.36 µM | GI50 [55] 25.9 µM | GI50 [56] 4.84 µM
23.2 µM: TGI [40]
active: GI50 [9] 0.36 µM | GI50 [28] 0.389 µM | GI50 [44] 0.318 µM
18.3 µM: TGI [28]
56 µM: TGI [41]
21.2 µM: TGI [26]
6.99 µM: TGI [42]
